Strand notation (5' to 3'): a small letter for the sugar, then the base; units joined by * are phosphorothioate-linked, units joined directly phosphodiester-linked; [ ] holds rarer units or linkages, { } end groups; capitals alone tell only the bases. e = 2'-O-(2-methoxyethyl) (MOE); [5mC] = 5-methylcytosine; d = 2'-deoxy (DNA)
System: hB7-2 mRNA
Assay: Ribonuclease protection assay of hB7-2 mRNA in transfected COS-7 cells
Assay type: cell-based, human
Procedure: For ribonuclease protection assays, cells were harvested 18 hours after completion of oligonucleotide treatment using a Totally RNA™ kit (Ambion, Austin, Tex.). The probes for the assay were generated from plasmids pcB7-2 (linearized by digestion with Bgl II) and pTRI-b-actin (Ambion Inc., Austin, Tex.). In vitro transcription of the linearized plasmid from the SP6 promoter was performed in the presence of α-^32P-UTP (800 Ci/mmole) yielding an antisense RNA complementary to the 3′ end of B7-2 (position 1044-1391). The probe was gel-purified after treatment with DNase I to remove DNA template. Ribonuclease protection assays were carried out using an RPA II™ kit (Ambion) according to the manufacturer's directions. Total RNA (5 μg) was hybridized overnight, at 42° C., with 10^5 cpm of the B7-2 probe or a control beta-actin probe. The hybridization reaction was then treated, at 37° C. for 30 minutes, with 0.4 units of RNase A and 2 units of RNase T1. Protected RNA was precipitated, resuspended in 10 μL of gel loading buffer and electrophoresed on a 6% acrylamide gel with 50% w/v urea at 20 W. The gel was then exposed and the lanes quantitated using a PhosphorImager (Molecular Dynamics, Sunnyvale, Calif.) essentially according to the manufacturer's instructions.
The oligonucleotides were screened as described in Example 4 except that the concentration of oligonucleotide was varied as shown in Table 13. Mismatch control oligonucleotides were included.

[1] = COS-7 cells, B7-2 mRNA, oligonucleotide dose 10 nM, basal = 100%
[2] = COS-7 cells, B7-2 mRNA, oligonucleotide dose 30 nM, basal = 100%
[3] = COS-7 cells, B7-2 mRNA, oligonucleotide dose 100 nM, basal = 100%
[4] = COS-7 cells, B7-2 mRNA, oligonucleotide dose 300 nM, basal = 100%
[5] = COS-7 cells, B7-2 mRNA, oligonucleotide dose 10 nM
[6] = COS-7 cells, B7-2 mRNA, oligonucleotide dose 30 nM

Substance | % mRNA EXPRESSION (human B7-2 mRNA, Table 12) [%] | also measured
22285 (e[5mC]*eA*eG*eA*eA*dG*d[5mC]*dA*dA*dG*dG*dT*dG*dG*dT*eA*eA*eG*eA*eA; antisense) [compound 22285] | 74 | % mRNA INHIBITION (human B7-2 mRNA, Table 12): 26%
22286 (eG*e[5mC]*e[5mC]*eT*eG*dT*d[5mC]*d[5mC]*dA*d[5mC]*dT*dG*dT*dA*dG*e[5mC]*eT*e[5mC]*e[5mC]*eA; antisense) [compound 22286] | 39 | –
22288 (eT*e[5mC]*eA*eG*eA*dG*dG*dA*dG*d[5mC]*dA*dG*d[5mC]*dA*d[5mC]*e[5mC]*eA*eG*eA*eG; antisense) [compound 22288] | 38 | –
22289 (eT*eG*eG*e[5mC]*eA*dT*dG*dG*d[5mC]*dA*dG*dG*dT*d[5mC]*dT*eG*e[5mC]*eA*eG*eT; antisense) [compound 22289] | 41 | –
22290 (eA*eG*e[5mC]*eT*e[5mC]*dA*d[5mC]*dT*d[5mC]*dA*dG*dG*d[5mC]*dT*dT*eT*eG*eG*eT*eT; antisense) [compound 22290] | 42 | –
22291 (eT*eG*e[5mC]*e[5mC]*eT*dA*dA*dG*dT*dA*dT*dA*d[5mC]*d[5mC]*dT*e[5mC]*eA*eT*eT*e[5mC]; antisense) [compound 22291] | 41 | –
22292 (e[5mC]*eT*eG*eT*e[5mC]*dA*dA*dA*dT*dT*dT*d[5mC]*dT*d[5mC]*dT*eT*eT*eG*e[5mC]*e[5mC]; antisense) [compound 22292] | 39 | –
22293 (e[5mC]*eA*eT*eA*eT*dA*d[5mC]*dT*dT*dG*dG*dA*dA*dT*dG*eA*eA*e[5mC]*eA*e[5mC]; antisense) [compound 22293] | 43 | –
22295 (eT*eG*eA*eT*e[5mC]*dT*dG*dA*dA*dG*dA*dT*dT*dG*dT*eG*eA*eA*eG*eT; antisense) [compound 22295] | 66 | % mRNA INHIBITION (human B7-2 mRNA, Table 12): 34%
22296 (eA*eA*eG*e[5mC]*e[5mC]*d[5mC]*dT*dT*dG*dT*d[5mC]*d[5mC]*dT*dT*dG*eA*eT*e[5mC]*eT*eG; antisense) [compound 22296] | 42 | –
22297 (eT*eG*eT*eG*eA*dT*dG*dG*dA*dT*dG*dA*dT*dA*d[5mC]*eA*eT*eT*eG*eA; antisense) [compound 22297] | 54 | % mRNA INHIBITION (human B7-2 mRNA, Table 12): 46%
22298 (eT*e[5mC]*eA*eG*eG*dT*dT*dG*dA*d[5mC]*dT*dG*dA*dA*dG*eT*eT*eA*eG*e[5mC]; antisense) [compound 22298] | 53 | % mRNA INHIBITION (human B7-2 mRNA, Table 12): 47%
22299 (eG*eT*eG*eT*eA*dT*dA*dG*dA*dT*dG*dA*dG*d[5mC]*dA*eG*eG*eT*e[5mC]*eA; antisense) [compound 22299] | 46 | –
22300 (eT*e[5mC]*eT*eG*eT*dG*dA*d[5mC]*dA*dT*dT*dA*dT*d[5mC]*dT*eT*eG*eA*eG*eA; antisense) [compound 22300] | 39 | –
22301 (eA*eA*eG*eA*eT*dA*dA*dA*dA*dG*d[5mC]*d[5mC]*dG*d[5mC]*dG*eT*e[5mC]*eT*eT*eG; antisense) [compound 22301] | 51 | –
22302 (eA*eG*eA*eA*eA*dA*d[5mC]*d[5mC]*dA*dT*d[5mC]*dA*d[5mC]*dA*d[5mC]*eA*eT*eA*eT*eA; antisense) [compound 22302] | 41 | –
22303 (eA*eG*eA*eG*eT*dT*dG*d[5mC]*dG*dA*dG*dG*d[5mC]*d[5mC]*dG*e[5mC]*eT*eT*e[5mC]*eT; antisense) [compound 22303] | 46 | –
22304 (eT*e[5mC]*e[5mC]*e[5mC]*eT*d[5mC]*dT*d[5mC]*d[5mC]*dA*dT*dT*dG*dT*dG*eT*eT*eG*eG*eT; antisense) [compound 22304] | 41 | –
22305 (e[5mC]*eA*eT*e[5mC]*eA*dG*dA*dT*d[5mC]*dT*dT*dT*d[5mC]*dA*dG*eG*eT*eA*eT*eA; antisense) [compound 22305] | 57 | % mRNA INHIBITION (human B7-2 mRNA, Table 12): 43%
22306 (eG*eG*e[5mC]*eT*eT*dT*dA*d[5mC]*dT*d[5mC]*dT*dT*dT*dA*dA*eT*eT*eA*eA*eA; antisense) [compound 22306] | 44 | –
22307 (eG*eA*eA*eA*eT*d[5mC]*dA*dA*dA*dA*dA*dG*dG*dT*dT*eG*e[5mC]*e[5mC]*e[5mC]*eA; antisense) [compound 22307] | 45 | –
22308 (eG*eG*eA*eG*eT*d[5mC]*d[5mC]*dT*dG*dG*dA*dG*d[5mC]*d[5mC]*d[5mC]*e[5mC]*e[5mC]*eT*eT*eA; antisense) [compound 22308] | 40 | –
22309 (eT*eT*eG*eG*e[5mC]*dA*dT*dA*d[5mC]*dG*dG*dA*dG*d[5mC]*dA*eG*eA*eG*e[5mC]*eT; antisense) [compound 22309] | 42 | –
22310 (eT*eG*eT*eG*e[5mC]*dT*d[5mC]*dT*dG*dA*dA*dG*dT*dG*dA*eA*eA*eA*eG*eA; antisense) [compound 22310] | 41 | –
22311 (eG*eG*e[5mC]*eT*eT*dG*dG*d[5mC]*d[5mC]*d[5mC]*dA*dT*dA*dA*dG*eT*eG*eT*eG*e[5mC]; antisense) [compound 22311] | 49 | –
22312 (e[5mC]*e[5mC]*eT*eA*eA*dA*dT*dT*dT*dT*dA*dT*dT*dT*d[5mC]*e[5mC]*eA*eG*eG*eT; antisense) [compound 22312] | 83 | % mRNA INHIBITION (human B7-2 mRNA, Table 12): 17%
24736 (antisense eG*e[5mC]*eT*e[5mC]*e[5mC]*dA*dA*dG*dT*dG*dT*d[5mC]*d[5mC]*d[5mC]*dA*eA*eT*eG*eA*eA) [compound 24736] | – | % mRNA EXPRESSION [1]: 102%; % mRNA EXPRESSION [2]: 101%; % mRNA EXPRESSION [3]: 100%; % mRNA EXPRESSION [4]: 107%
24737 (antisense eA*eG*eT*eA*eT*dG*dT*dT*dT*d[5mC]*dT*d[5mC]*dA*d[5mC]*dT*e[5mC]*e[5mC]*eG*eA*eT) [compound 24737] | – | % mRNA INHIBITION [5]: 15%; % mRNA EXPRESSION [1]: 85%; % mRNA INHIBITION [6]: 5%; % mRNA EXPRESSION [2]: 95%; % mRNA INHIBITION (COS-7 cells, B7-2 mRNA, oligonucleotide dose 100 nM): 13%; % mRNA EXPRESSION [3]: 87%; % mRNA INHIBITION (COS-7 cells, B7-2 mRNA, oligonucleotide dose 300 nM): 1%; % mRNA EXPRESSION [4]: 99%
24738 (antisense eT*eG*e[5mC]*e[5mC]*eA*dG*d[5mC]*dA*d[5mC]*d[5mC]*d[5mC]*dG*dG*dT*dA*e[5mC]*eG*eT*e[5mC]*e[5mC]) [compound 24738] | – | % mRNA INHIBITION [5]: 19%; % mRNA EXPRESSION [1]: 81%; % mRNA INHIBITION [6]: 8%; % mRNA EXPRESSION [2]: 92%; % mRNA EXPRESSION [3]: 101%; % mRNA EXPRESSION [4]: 124%
